Test results from patent US20210047291A1, “PESTICIDALLY ACTIVE HETEROCYCLIC DERIVATIVES WITH SULFUR CONTAINING SUBSTITUENTS” (SYNGENTA PARTICIPATIONS AG, priority 2018, published 2021).
Like-named read-outs stand apart in the source and are kept apart here.

What was measured:
Assay type in all cases: in vivo
[1] = tested on: Diabrotica Balteata (Corn Root Worm); assay: Example B2: Diabrotica balteata, maize sprouts, L2 larvae; details: for percent effect (mortality or growth inhibition) at 200 ppm: Diabrotica balteata, 96 h, application rate of 200 ppm, L2 larvae, 4 days after infestation, read-out: effect in at least one of the two categories (mortality or growth inhibition)
Description: Maize sprouts placed onto an agar layer in 24-well microtiter plates were treated with aqueous test solutions prepared from 10,000 ppm DMSO stock solutions by spraying. After drying, the plates were infested with L2 larvae (6 to 10 per well). The samples were assessed for mortality and growth inhibition in comparison to untreated samples 4 days after infestation.

[2] = tested on: Euschistus heros (Neotropical Brown Stink Bug); assay: Example B3: Euschistus heros, soybean leaves, N2 nymphs; details: for percent effect (mortality or growth inhibition) at 200 ppm: 120 h, read-out: effect in at least one of the two categories (mortality or growth inhibition)
Description: Soybean leaves on agar in 24-well microtiter plates were sprayed with aqueous test solutions prepared from 10,000 ppm DMSO stock solutions. After drying the leaves were infested with N2 nymphs. The samples were assessed for mortality and growth inhibition in comparison to untreated samples 5 days after infestation.

[3] = tested on: Myzus persicae (Green peach aphid); assay: Example B5: Myzus persicae feeding/contact activity, sunflower leaf discs; details: foliar; for mortality at 200 ppm: 144 h
Description: Sunflower leaf discs were placed onto agar in a 24-well microtiter plate and sprayed with aqueous test solutions prepared from 10,000 ppm DMSO stock solutions. After drying, the leaf discs were infested with an aphid population of mixed ages. The samples were assessed for mortality 6 days after infestation.

[4] = tested on: Myzus persicae (Green peach aphid); assay: Example B6: Myzus persicae systemic activity, pea seedlings; details: for mortality at 24 ppm: 144 h
Description: Roots of pea seedlings infested with an aphid population of mixed ages were placed directly into aqueous test solutions prepared from 10,000 DMSO stock solutions. The samples were assessed for mortality 6 days after placing seedlings into test solutions.

[5] = tested on: Spodoptera littoralis (Egyptian Cotton Leaf Worm); assay: Example B9: Spodoptera littoralis, cotton leaf discs (mortality, anti-feeding, growth inhibition); details: foliar, 72 h, read-out: control (mortality, anti-feeding effect or growth inhibition)
Description: Cotton leaf discs were placed onto agar in 24-well microtiter plates and sprayed with aqueous test solutions prepared from 10,000 ppm DMSO stock solutions. After drying the leaf discs were infested with five L1 larvae. The samples were assessed for mortality, anti-feeding effect, and growth inhibition in comparison to untreated samples 3 days after infestation. Control of Spodoptera littoralis by a test sample is given when at least one of the categories mortality, anti-feedant effect, and growth inhibition is higher than the untreated sample.

[6] = tested on: Melodoigyne incognita; assay: Example B14: Melodoigyne incognita juvenile mobility, in vitro profiling in 96 well plate; details: read-out: control (juvenile mobility)
Description: Test solutions are prepared from 10,000 ppm DMSO stock solutions with a TECAN robot to achieve 20 μL of 1000, 200, 100, 50, 25 and 12.5 ppm. For each concentration three replicates are produced. Per well, 80 μL nematode solution is added containing 100 to 150 freshly harvested second stage juveniles of Melodoigyne incognita. The plates are covered and stored at room temperature in the dark and incubated for 24 h. Mobility of the exposed juveniles in a treated well is measured using an imaging tool and compared to an average of 12 untreated replicates.

[7] = tested on: Plutella xylostella (Diamond Back Moth); assay: Example B7: Plutella xylostella, artificial diet, L2 larvae; details: 120 h, read-out: effect in at least one of the two categories (mortality or growth inhibition); for percent effect (mortality or growth inhibition) at 200 ppm: application rate of 200 ppm, L2 larvae, 5 days after infestation
Description: 24-well microtiter plates with artificial diet were treated with aqueous test solutions prepared from 10,000 ppm DMSO stock solutions by pipetting. After drying, the plates were infested with L2 larvae (10 to 15 per well). The samples were assessed for mortality and growth inhibition in comparison to untreated samples 5 days after infestation.

[8] = Euschistus heros, application rate of 200 ppm, N2 nymphs, 5 days after infestation
[9] = Myzus persicae, application rate of 200 ppm, mixed ages, 6 days after infestation, read-out: mortality
[10] = Myzus persicae, test rate of 24 ppm, mixed ages, 6 days after placing seedlings into test solutions, read-out: mortality
[11] = application rate of 200 ppm, L1 larvae, 3 days after infestation
[12] = 200 ppm, after 24 h, second stage juveniles
[13] = Concentration 50 ppm, Euschistus heros (Example B3), read-out: Mortality (%)
[14] = Concentration 12.5 ppm, Myzus persicae (feeding/contact, Example B5), read-out: Mortality (%)
[15] = Concentration 1.5 ppm, Myzus persicae (systemic, Example B6), read-out: Mortality (%)

| SMILES | percent effect (mortality or growth inhibition) at 200 ppm [1] [%] | percent effect (mortality or growth inhibition) at 200 ppm [2, 8] [%] | mortality at 200 ppm [3, 9] [%] | mortality at 24 ppm [4, 10] [%] | percent control (mortality, anti-feedant effect or growth inhibition) at 200 ppm [5, 11] [%] | pest or weed control at 200 ppm [6, 12] [%] | also measured |
| --- | --- | --- | --- | --- | --- | --- | --- |
| CCS(=O)(=O)c1cc(NC(C)=O)cnc1-c1nc2cc(C(F)(F)F)ncc2n1C [drawing 155, reference compound] |  |  |  |  |  |  | Mortality (%) ([1]; Concentration 200 ppm, Diabrotica balteata (Example B2)): 0% |
| CCS(=O)(=O)c1cc(N(C)C(=O)CS(C)(=O)=O)cnc1-c1nc2cc(C(F)(F)F)ncc2n1C [P17, N-[5-ethylsulfonyl-6-[3-methyl-6-(trifluoromethyl)imidazo[4,5-c]pyridin-2-yl]-3-pyridyl]-N-methyl-2-methylsulfonyl-acetamide] | ≥ 80 | ≥ 80 | ≥ 80 | ≥ 80 | ≥ 80 | ≥ 80 |  |
| CCS(=O)(=O)c1cc(N2CCCC2=O)cnc1-c1nc2cc(C(F)(F)F)ncc2n1C [P5, 1-[5-ethylsulfonyl-6-[3-methyl-6-(trifluoromethyl)imidazo[4,5-c]pyridin-2-yl]-3-pyridyl]pyrrolidin-2-one] |  |  |  |  |  |  | mortality at 50 ppm ([2]; Euschistus heros): 100%; percent effect (mortality or growth inhibition) at 200 ppm ([2]; Euschistus heros): ≥ 80%; mortality at 12.5 ppm ([3]; Myzus persicae): 0%; mortality at 200 ppm ([3]; Myzus persicae): ≥ 80%; mortality at 1.5 ppm ([4]; Myzus persicae): 80%; mortality at 24 ppm ([4]; Myzus persicae): ≥ 80%; percent control (mortality or growth inhibition) at 200 ppm [7]: ≥ 80%; percent control (mortality, anti-feedant effect or growth inhibition) at 200 ppm [5]: ≥ 80%; pest or weed control at 200 ppm ([6]; 24 h): ≥ 80% |
| CCS(=O)(=O)c1cc(N(C)C(=O)CC(F)(F)F)cnc1-c1nc2cc(C(F)(F)F)ncc2n1C [P28, N-[5-ethylsulfonyl-6-[3-methyl-6-(trifluoromethyl)imidazo[4,5-c]pyridin-2-yl]-3-pyridyl]-3,3,3-trifluoro-N-methyl-propanamide] | ≥ 80 | ≥ 80 | ≥ 80 | ≥ 80 |  |  |  |
| CCS(=O)(=O)c1cc(N2CCOC2=O)cnc1-c1nc2cc(C(F)(F)F)ncc2n1C [P34, 3-[5-ethylsulfonyl-6-[3-methyl-6-(trifluoromethyl)imidazo[4,5-c]pyridin-2-yl]-3-pyridyl]oxazolidin-2-one] |  | ≥ 80 | ≥ 80 | ≥ 80 | ≥ 80 | ≥ 80 | mortality at 50 ppm [2, 13]: 80%; mortality at 12.5 ppm [3, 14]: 100%; mortality at 1.5 ppm [4, 15]: 100%; percent effect (mortality or growth inhibition) at 200 ppm [7]: ≥ 80% |
| CCC(=O)Nc1cnc(-c2nc3cc(C(F)(F)F)ncc3n2C)c(S(=O)(=O)CC)c1 [P25, N-[5-ethylsulfonyl-6-[3-methyl-6-(trifluoromethyl)imidazo[4,5-c]pyridin-2-yl]-3-pyridyl]propanamide] | ≥ 80 | ≥ 80 | ≥ 80 | ≥ 80 |  | ≥ 80 | percent effect (mortality or growth inhibition) at 200 ppm [7]: ≥ 80% |
| CCS(=O)(=O)c1cc(N(C)C(=O)CCl)cnc1-c1nc2cc(C(F)(F)F)ncc2n1C [P22, 2-chloro-N-[5-ethylsulfonyl-6-[3-methyl-6-(trifluoromethyl)imidazo[4,5-c]pyridin-2-yl]-3-pyridyl]-N-methyl-acetamide] |  | ≥ 80 | ≥ 80 | ≥ 80 | ≥ 80 | ≥ 80 |  |
| CCC(=O)N(CC(F)(F)F)c1cnc(-c2nc3cc(C(F)(F)F)ncc3n2C)c(S(=O)(=O)CC)c1 [P32, N-[5-ethylsulfonyl-6-[3-methyl-6-(trifluoromethyl)imidazo[4,5-c]pyridin-2-yl]-3-pyridyl]-N-(2,2,2-trifluoroethyl)propanamide] | ≥ 80 | ≥ 80 | ≥ 80 | ≥ 80 |  |  |  |
| CCS(=O)(=O)c1cc(N(C)C(=O)C(C)(C)C)cnc1-c1nc2cc(C(F)(F)F)ncc2n1C [P26, N-[5-ethylsulfonyl-6-[3-methyl-6-(trifluoromethyl)imidazo[4,5-c]pyridin-2-yl]-3-pyridyl]-N,2,2-trimethyl-propanamide] |  | ≥ 80 | ≥ 80 | ≥ 80 |  | ≥ 80 | percent effect (mortality or growth inhibition) at 200 ppm [7]: ≥ 80% |
| CCS(=O)(=O)c1cc(N2CCNC2=O)cnc1-c1nc2cc(C(F)(F)F)ncc2n1C [P36, 1-[5-ethylsulfonyl-6-[3-methyl-6-(trifluoromethyl)imidazo[4,5-c]pyridin-2-yl]-3-pyridyl]imidazolidin-2-one] |  | ≥ 80 | ≥ 80 | ≥ 80 |  | ≥ 80 | mortality at 50 ppm [2, 13]: 100%; mortality at 12.5 ppm [3, 14]: 90%; mortality at 1.5 ppm [4, 15]: 100% |
| CCS(=O)(=O)c1cc(N2CCN(C)C2=O)cnc1-c1nc2cc(C(F)(F)F)ncc2n1C [P37, 1-[5-ethylsulfonyl-6-[3-methyl-6-(trifluoromethyl)imidazo[4,5-c]pyridin-2-yl]-3-pyridyl]-3-methyl-imidazolidin-2-one] |  | ≥ 80 | ≥ 80 | ≥ 80 |  | ≥ 80 | mortality at 50 ppm [2, 13]: 100%; mortality at 12.5 ppm [3, 14]: 90%; mortality at 1.5 ppm [4, 15]: 100% |
| CCS(=O)(=O)c1cc(NC(=O)C(F)(F)F)cnc1-c1nc2cc(C(F)(F)F)ncc2n1C [P44, N-[5-ethylsulfonyl-6-[3-methyl-6-(trifluoromethyl)imidazo[4,5-c]pyridin-2-yl]-3-pyridyl]-2,2,2-trifluoro-acetamide] | ≥ 80 | ≥ 80 | ≥ 80 |  |  | ≥ 80 |  |
| CCS(=O)(=O)c1cc(N(OC)C(=O)C2CC2)cnc1-c1nc2cc(C(F)(F)F)ncc2n1C [P24, N-[5-ethylsulfonyl-6-[3-methyl-6-(trifluoromethyl)imidazo[4,5-c]pyridin-2-yl]-3-pyridyl]-N-methoxy-cyclopropanecarboxamide] | ≥ 80 | ≥ 80 |  |  | ≥ 80 | ≥ 80 | percent effect (mortality or growth inhibition) at 200 ppm [7]: ≥ 80% |
| CCS(=O)(=O)c1cc(N2CCN(OC)C2=O)cnc1-c1nc2cc(C(F)(F)F)ncc2n1C [P35, 1-[5-ethylsulfonyl-6-[3-methyl-6-(trifluoromethyl)imidazo[4,5-c]pyridin-2-yl]-3-pyridyl]-3-methoxy-imidazolidin-2-one] |  | ≥ 80 | ≥ 80 | ≥ 80 | ≥ 80 |  |  |
| CCN(C(=O)CCl)c1cnc(-c2nc3cc(C(F)(F)F)ncc3n2C)c(S(=O)(=O)CC)c1 [P20, 2-chloro-N-ethyl-N-[5-ethylsulfonyl-6-[3-methyl-6-(trifluoromethyl)imidazo[4,5-c]pyridin-2-yl]-3-pyridyl]acetamide] | ≥ 80 | ≥ 80 | ≥ 80 | ≥ 80 |  | ≥ 80 |  |
